By IC50 is commonly meant the point on the concentration scale where inhibition reaches its midpoint. A low value points to inhibition by little substance.

Holding throughout (experiment): MTT inhibition test against cell growth
One assay has as its system HeLa-229. The format is cell-based, human. Particulars: cervical cancer cell HeLa-229, 48 hours. As for the experimental part: (§1) The test selected human ovarian cancer cell SK-OV-3, liver cancer cell Hep-G2, gastric cancer cell MGC-803, bladder cancer cell T-24, cervical cancer cell HeLa-229, human large cell lung cancer cell NCI-H460 and human normal liver cell HL-7702, and all the used cell lines were placed in an RPMI-1640 or high-sugar DMEM culture solution containing 1% penicillin-streptomycin and 10% newborn fetal calf serum and cultured in an incubator at 37 °C and 5% CO2. The growths of the cells were observed discontinuously by an inverted microscope, and the culture solution was replaced periodically or digestion subcultured with 0.25% trypsin according to actual situations. […] The compounds each were formulated into 20 µmol/L of a solution, DMSO is used as a cosolvent with a final concentration of ≤1%; at the concentration, the inhibition degrees of the compounds against the growth of tumor cells were tested. […] After the individual tumor cells were attached to the wall, the working solutions of the tested compounds were added, and each compound is provided with quintuple holes in parallel whilst a corresponding control group (with a culture solution only containing tumor cells and the same equivalent of DMSO but without the tested compounds) is provided. […] The following equitation was utilized: […]

The next assay has as its system HepG-2. Format: cell-based, human. As for the experimental part:
as §1

In the next assay the test system is MGC-803. Format: cell-based, human. The conditions noted are these: gastric cancer cell MGC-803, 48 hours. Here is the method: as §1
The next assay has as its system T-24. Format: cell-based, human. The conditions noted are these: bladder cancer cell T-24, 48 hours. Here is the method: as §1
The next assay deals with HL-7702. Format: cell-based. As for the experimental part:
as §1

For a further assay, the system named is NCI-H460. The format is cell-based. The conditions noted are these: human large cell lung cancer cell NCI-H460, 48 hours. Here is the method: as §1
Where [1] appears, read: Homo sapiens, HepG2, liver cancer cell HepG-2, 48 hours.
The mark [2] stands for this setting: L02, human normal liver cell HL-7702, 48 hours.

Regarding `O=Cc1c2ccccc2c(C=NNC2=NCCN2)c2ccccc12` [9-formyl-10-imidazolylanthrahydrazone], the IC50 is above 20 µM with HeLa-229 (Homo sapiens); 15.1 ± 1.69 µM in the assay with HepG-2 (setting [1]); 18.8 ± 0.5 µM in the assay with MGC-803 (Homo sapiens); 13.9 ± 1.46 µM with T-24 (Homo sapiens); 16.4 ± 2.78 µM with HL-7702 (setting [2]); 16.1 ± 1.4 µM with NCI-H460.
Take `O=S(=O)(O)c1ccc(N=Cc2c3ccccc3c(C=NNC3=NCCN3)c3ccccc23)cc1` [9-benzenesulfonic acid-10-imidazolylanthrahydrazone]: the IC50 came to 10.5 ± 1.52 µM in the assay with HeLa-229 (Homo sapiens); 12.7 ± 1.56 µM in the assay with HepG-2 (setting [1]); 9.48 ± 0.68 µM with MGC-803 (Homo sapiens); 10.7 ± 0.56 µM with T-24 (Homo sapiens); 11.3 ± 0.71 µM in the assay with HL-7702 (setting [2]); 14.5 ± 1.42 µM in the assay on NCI-H460.
Regarding `N.N.[Cl][Pt][Cl]` [cisplatin], the IC50 in the assay on HeLa-229 came out at 13.2 ± 2.74 µM; in the assay with HepG-2 (liver cancer cell HepG-2, 48 hours), 18.6 ± 0.78 µM; with MGC-803, 17.8 ± 2.5 µM; with T-24 it was 14.8 ± 2.74 µM; with HL-7702 (human normal liver cell HL-7702, 48 hours) it was 12.7 ± 1.27 µM; with NCI-H460, 18.3 ± 1.02 µM.

These data come from patent EP3816157A1 (Guangxi Normal University, priority 2019, dated 2021).
